According to patent US20070185129A1, “ACID ADDITION SALTS OF THIENOPYRANCARBOXAMIDE DERIVATIVES” (Recordati Ireland Limited, priority 2006, published 2007):

Legend:
water solubility = format: physicochemical
α1b receptor = molecular target: T1, α1b receptor (Homo sapiens, UniProt P35368); assay: selectivity for α1a receptor compared to α1b receptor; format: binding
T1 sequence (P35368 1-520): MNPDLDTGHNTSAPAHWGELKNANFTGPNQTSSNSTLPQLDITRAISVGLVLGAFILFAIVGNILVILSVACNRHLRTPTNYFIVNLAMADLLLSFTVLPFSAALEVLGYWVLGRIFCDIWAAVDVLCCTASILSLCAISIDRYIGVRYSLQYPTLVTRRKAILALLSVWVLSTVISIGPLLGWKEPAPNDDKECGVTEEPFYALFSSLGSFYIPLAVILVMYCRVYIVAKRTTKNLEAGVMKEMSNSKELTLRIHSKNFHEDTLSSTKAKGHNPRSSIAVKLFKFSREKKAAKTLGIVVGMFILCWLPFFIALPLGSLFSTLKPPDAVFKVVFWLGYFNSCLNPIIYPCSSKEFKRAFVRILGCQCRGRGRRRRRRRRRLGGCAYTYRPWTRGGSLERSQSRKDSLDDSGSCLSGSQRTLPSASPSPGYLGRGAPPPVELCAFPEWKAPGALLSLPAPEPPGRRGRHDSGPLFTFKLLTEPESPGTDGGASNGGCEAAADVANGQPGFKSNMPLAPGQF

stability of solid form = format: physicochemical
[1] = molecular target: T2, recombinant human 5-HT1A receptor (Homo sapiens, UniProt P08908); assay: selectivity for α1a receptor relative to 5-HT1A receptor; format: binding
T2 sequence (P08908 1-422): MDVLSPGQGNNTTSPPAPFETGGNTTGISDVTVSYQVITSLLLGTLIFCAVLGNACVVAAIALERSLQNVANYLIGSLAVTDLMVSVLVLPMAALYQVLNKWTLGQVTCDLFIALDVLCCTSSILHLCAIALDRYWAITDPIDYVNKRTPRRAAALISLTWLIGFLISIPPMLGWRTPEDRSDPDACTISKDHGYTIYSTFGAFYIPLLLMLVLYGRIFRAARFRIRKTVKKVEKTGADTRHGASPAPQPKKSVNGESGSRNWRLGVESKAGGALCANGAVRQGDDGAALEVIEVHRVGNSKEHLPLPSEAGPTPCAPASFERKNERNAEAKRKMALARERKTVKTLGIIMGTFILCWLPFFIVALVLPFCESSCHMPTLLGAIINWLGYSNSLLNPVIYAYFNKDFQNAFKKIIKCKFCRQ

α1L receptor = conditions: isolated rabbit aorta model system; cited from earlier work
α1d receptor = molecular target: T3, α1d receptor (Homo sapiens, UniProt P25100); assay: selectivity for α1a receptor compared to α1d receptor; format: binding
T3 sequence (P25100 1-572): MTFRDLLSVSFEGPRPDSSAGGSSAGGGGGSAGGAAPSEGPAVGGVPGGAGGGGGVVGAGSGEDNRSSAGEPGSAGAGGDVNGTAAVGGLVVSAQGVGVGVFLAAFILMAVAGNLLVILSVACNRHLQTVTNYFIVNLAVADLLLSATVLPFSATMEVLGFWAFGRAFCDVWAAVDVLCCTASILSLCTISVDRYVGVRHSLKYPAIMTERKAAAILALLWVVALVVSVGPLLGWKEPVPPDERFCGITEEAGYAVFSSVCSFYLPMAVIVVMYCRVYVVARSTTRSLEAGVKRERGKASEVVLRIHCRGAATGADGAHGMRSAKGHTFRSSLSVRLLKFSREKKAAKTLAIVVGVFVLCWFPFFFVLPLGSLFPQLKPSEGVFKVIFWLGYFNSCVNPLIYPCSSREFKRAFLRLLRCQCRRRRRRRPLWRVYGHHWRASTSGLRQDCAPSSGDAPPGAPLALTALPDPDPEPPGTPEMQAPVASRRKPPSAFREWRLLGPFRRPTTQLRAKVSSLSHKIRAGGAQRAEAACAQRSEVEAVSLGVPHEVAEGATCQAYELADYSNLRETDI

[2] = molecular target: T4, recombinant human α1a receptor (Homo sapiens, UniProt P35348); conditions: cited from earlier work
T4 sequence (P35348 1-466): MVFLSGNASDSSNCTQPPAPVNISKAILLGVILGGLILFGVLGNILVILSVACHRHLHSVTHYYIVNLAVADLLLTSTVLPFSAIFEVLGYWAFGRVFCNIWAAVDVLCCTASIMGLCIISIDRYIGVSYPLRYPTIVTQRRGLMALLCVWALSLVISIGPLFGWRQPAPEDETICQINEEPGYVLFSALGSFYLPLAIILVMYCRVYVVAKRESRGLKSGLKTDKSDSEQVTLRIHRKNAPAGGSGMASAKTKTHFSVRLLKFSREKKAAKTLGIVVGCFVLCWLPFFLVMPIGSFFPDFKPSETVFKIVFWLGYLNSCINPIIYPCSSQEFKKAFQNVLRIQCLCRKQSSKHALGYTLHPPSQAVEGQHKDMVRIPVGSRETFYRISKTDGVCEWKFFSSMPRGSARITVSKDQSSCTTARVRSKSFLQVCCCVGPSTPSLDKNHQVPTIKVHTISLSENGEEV

| SMILES | water solubility (in words) (water solubility) | solubility (water solubility; water, at 25° C.) [mg/mL] | selectivity for α1a receptor as compared to the α1b receptor (α1b receptor) [fold] | heat stability / stability (in words) (stability of solid form) | selectivity for the recombinant human α1a receptor relative to the recombinant human 5-HT1A receptor [1] [fold] | functional antagonism of the α1L receptor (α1L receptor) | selectivity for α1a receptor as compared to the α1d receptor (α1d receptor) [fold] | affinity for the α1a receptor [2] |
| --- | --- | --- | --- | --- | --- | --- | --- | --- |
| COc1ccccc1N1CCN(CCCNC(=O)c2csc3c(=O)cc(C(F)(F)F)oc23)CC1.CS(=O)(=O)O [Example 2A, N-{3-[4-(2-methoxyphenyl)-1-piperazinyl]propyl}-7-oxo-5-trifluoromethyl-7H-thieno[3,2-b]pyran-3-carboxamide mesylate salt] | improved water solubility compared to the free base | 100 | – | – | – | – | – | – |
| COc1ccccc1N1CCN(CCCNC(=O)c2csc3c(=O)cc(C(F)(F)F)oc23)CC1 [Example 1, N-{3-[4-(2-methoxyphenyl)-1-piperazinyl]propyl}-7-oxo-5-trifluoromethyl-7H-thieno[3,2-b]pyran-3-carboxamide] | poor water solubility | – | ~40 | heat instability | ~45 | functional antagonism | ~6 | high affinity |
